Molecules are shown by their SMILES. Several values for one entry are separate records, joined by “and”; a condition that tells them apart may be missing. Identical values can stand only once. Toxic doses and inconclusive results are not listed. Peptide text beside a SMILES is read from it.

In this assay the test system is P388 leukemia ip, CD2F1 mice, survival T/C. The experiment in a line: NCI In Vivo Anticancer Drug Screen. Data for tumor model P388 Leukemia (intraperitoneal) in CD2F1 (CDF1) mice. As to conditions: endpoint: median survival time, higher = longer survival. Summed up:
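Mice carrying the transplanted tumor received test compound or vehicle. Survival was recorded in each group, and the value is the treated-group measurement divided by that of the vehicle-treated control group.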

[1] abbreviates: dose: 60.0 mg/kg/injection, schedule: Q01DX005 (ip), vehicle: saline with Tween-80.
Where [2] appears, read: dose: 120.0 mg/kg/injection, schedule: Q01DX005 (ip), vehicle: saline with Tween-80.
The mark [3] stands for this setting: dose: 240.0 mg/kg/injection, schedule: Q01DX005 (ip), vehicle: saline with Tween-80.
The mark [4] stands for this setting: dose: 50.0 mg/kg/injection, schedule: Q01DX005 (ip), vehicle: saline with Tween-80.
Where [5] appears, read: dose: 100.0 mg/kg/injection, schedule: Q01DX005 (ip), vehicle: saline with Tween-80.
Where [6] appears, read: dose: 200.0 mg/kg/injection, schedule: Q01DX005 (ip), vehicle: saline with Tween-80.
Where [7] appears, read: dose: 12.5 mg/kg/injection, schedule: Q01DX009 (ip), vehicle: other.
The mark [8] stands for this setting: dose: 25.0 mg/kg/injection, schedule: Q01DX009 (ip), vehicle: other.
Where [9] appears, read: dose: 50.0 mg/kg/injection, schedule: Q01DX009 (ip), vehicle: other.
[10] abbreviates: dose: 100.0 mg/kg/injection, schedule: Q01DX009 (ip), vehicle: other.

Consider `CC(=O)N1CCCC2=C1CCC2`, for which the T/C is 104 % of control (dose: 25.0 mg/kg/injection, schedule: Q04DX003 (ip), vehicle: saline); 100 % of control (dose: 50.0 mg/kg/injection, schedule: Q04DX003 (ip), vehicle: saline); 94 % of control and 97 % of control (dose: 100.0 mg/kg/injection, schedule: Q04DX003 (ip), vehicle: saline).
`NC(=S)Nc1cccc2ccccc12`: the T/C by setting is: (dose: 6.25 mg/kg/injection, schedule: Q01DX009 (ip), vehicle: saline with Tween-80) 100 % of control and 112 % of control; (dose: 12.5 mg/kg/injection, schedule: Q01DX009 (ip), vehicle: saline with Tween-80) 113 % of control and 94 % of control; (dose: 25.0 mg/kg/injection, schedule: Q01DX009 (ip), vehicle: saline with Tween-80) 104 % of control and 91 % of control; (dose: 50.0 mg/kg/injection, schedule: Q01DX009 (ip), vehicle: saline with Tween-80) 94 % of control.
As for `O=c1c(-c2ccccc2)coc2cc(O)ccc12`, the T/C under setting [1] is 105 % of control, the T/C under setting [2] was 89 % of control and the T/C under setting [3] is 88 % of control.
On to `CCB1OC2OC3C4OB(CC)OC4OC3C2O1` (centres undefined), for which the T/C is, setting by setting: under setting [4], 103 % of control; under setting [5], 103 % of control; under setting [6], 103 % of control.
Regarding `COC1=CC(=O)/C(=C(O)/C=C/c2ccccc2)C(=O)C1(C)C`, the T/C under setting [1] was 108 % of control, the T/C under setting [2] is 115 % of control and the T/C under setting [3] is 123 % of control.
Regarding `CCOC(=O)c1ccc(=O)n2c1[nH]c1ccccc12`, the T/C is 105 % of control (dose: 12.5 mg/kg/injection, schedule: Q01DX005 (ip), vehicle: saline with Tween-80); 108 % of control (dose: 25.0 mg/kg/injection, schedule: Q01DX005 (ip), vehicle: saline with Tween-80); 100 % of control and 108 % of control under setting [4].
As for `O=c1nc2ccccc2c2n1CCN2`, the T/C reads like this: under setting [4], 105 % of control; under setting [5], 101 % of control; under setting [6], 100 % of control.
Take `CCC1(C=O)NC(=O)NC1=O` (centres undefined): the T/C is, setting by setting: under setting [4], 91 % of control; under setting [5], 95 % of control; under setting [6], 87 % of control.
As for `CNNCc1ccc(C(=O)NC(N)=O)cc1`, under “dose: 300.0 mg/kg/injection, schedule: Q01DX009 (ip), vehicle: saline”, the T/C was 170 % of control.
`CCCCCCCCCCCOCC(=O)O`: the T/C is 98 % of control (dose: 50.0 mg/kg/injection, schedule: Q01DX009 (ip), vehicle: Klucel (hydroxypropylcellulose) (HPC)) and 92 % of control (dose: 100.0 mg/kg/injection, schedule: Q01DX009 (ip), vehicle: Klucel (hydroxypropylcellulose) (HPC)).
As to `CC(C)C1=CC(=O)C(C)(C2C(O)CC3(C)C4CC=C5C(CCC(O)C5(C)C)C4(C)C(=O)CC23C)O1` (centres undefined), the T/C is 97 % of control (dose: 10.13 mg/kg/injection, schedule: Q01DX005 (ip), vehicle: saline + alcohol); 98 % of control (dose: 20.25 mg/kg/injection, schedule: Q01DX005 (ip), vehicle: saline + alcohol); 101 % of control (dose: 40.05 mg/kg/injection, schedule: Q01DX005 (ip), vehicle: saline + alcohol); 97 % of control (dose: 81.0 mg/kg/injection, schedule: Q01DX005 (ip), vehicle: saline + alcohol).
Turning to `COc1cc2c(c(O)c1OC)-c1c(cc(OC)c(OC)c1OC)CC(C)C(C)C2` (centres undefined), the T/C was 100 % of control and 95 % of control (dose: 11.25 mg/kg/injection, schedule: Q01DX009 (ip), vehicle: saline + alcohol); 106 % of control (dose: 11.3 mg/kg/injection, schedule: Q01DX009 (ip), vehicle: saline + alcohol); 101 % of control and 115 % of control and 96 % of control (dose: 22.5 mg/kg/injection, schedule: Q01DX009 (ip), vehicle: saline + alcohol); 106 % of control and 121 % of control and 97 % of control (dose: 45.0 mg/kg/injection, schedule: Q01DX009 (ip), vehicle: saline + alcohol); 113 % of control and 121 % of control and 92 % of control (dose: 90.0 mg/kg/injection, schedule: Q01DX009 (ip), vehicle: saline + alcohol); 96 % of control (dose: 180.0 mg/kg/injection, schedule: Q01DX009 (ip), vehicle: saline + alcohol).
Consider `C[CH2][Pb]([CH2]C)([CH2]C)[O]C(=O)c1ccccc1`, for which the T/C is, setting by setting: (dose: 0.75 mg/kg/injection, schedule: Q01DX009 (ip), vehicle: Klucel (hydroxypropylcellulose) (HPC)) 113 % of control; (dose: 1.5 mg/kg/injection, schedule: Q01DX009 (ip), vehicle: Klucel (hydroxypropylcellulose) (HPC)) 115 % of control; (dose: 3.0 mg/kg/injection, schedule: Q01DX009 (ip), vehicle: Klucel (hydroxypropylcellulose) (HPC)) 123 % of control; (dose: 6.0 mg/kg/injection, schedule: Q01DX009 (ip), vehicle: Klucel (hydroxypropylcellulose) (HPC)) 123 % of control; (dose: 12.0 mg/kg/injection, schedule: Q01DX009 (ip), vehicle: Klucel (hydroxypropylcellulose) (HPC)) 97 % of control.
In the case of `COc1cc(CC2C(=O)OCC2Cc2cc(OC)c3c(c2)C(CO)C(c2ccc(O)c(OC)c2)O3)ccc1O` (centres undefined), the T/C was 102 % of control (dose: 5.0 mg/kg/injection, schedule: Q01DX009 (ip), vehicle: saline with Tween-80); 118 % of control (dose: 10.0 mg/kg/injection, schedule: Q01DX009 (ip), vehicle: saline with Tween-80); 101 % of control (dose: 20.0 mg/kg/injection, schedule: Q01DX009 (ip), vehicle: saline with Tween-80); 108 % of control (dose: 40.0 mg/kg/injection, schedule: Q01DX009 (ip), vehicle: saline with Tween-80).
Take `COc1ccc(/C=N/N2CN(C(C)C(=O)O)C(O)(CCl)N=C2N)cc1OC` (centres undefined): the T/C reads like this: (dose: 60.0 mg/kg/injection, schedule: Q01DX005 (ip), vehicle: saline) 108 % of control; (dose: 120.0 mg/kg/injection, schedule: Q01DX005 (ip), vehicle: saline) 114 % of control.
`[N-]=[N+]=Nc1ccnc2cc(Cl)ccc12`: the T/C by setting is: under setting [1], 108 % of control; under setting [2], 100 % of control; under setting [3], 104 % of control.
In the case of `CP1(=O)CCC23CCCCC21O3` (centres undefined), the T/C (dose: 50.0 mg/kg/injection, schedule: Q01DX009 (ip), vehicle: saline) is 104 % of control; the T/C (dose: 100.0 mg/kg/injection, schedule: Q01DX009 (ip), vehicle: saline) is 111 % of control; the T/C (dose: 200.0 mg/kg/injection, schedule: Q01DX009 (ip), vehicle: saline) was 95 % of control.
Turning to `CC1=CC(O)C(O)C2(C)C1CC1OC(=O)C(OC3OC(CO)C(O)C(O)C3O)C3C(C)C(O)C4(O)OCC13C42` (centres undefined), the T/C (dose: 2.13 mg/kg/injection, schedule: Q01DX005 (ip), vehicle: water) was 101 % of control.
On to `CC(C)C(NC(=O)C(N)CCCN=C(N)N)C(=O)O` (stereo not drawn) (H-Arg-Val-OH; configuration not given here), for which the T/C is, setting by setting: under setting [4], 91 % of control; under setting [5], 100 % of control; under setting [6], 100 % of control.
As to `NC(=O)Cn1ccnc1[N+](=O)[O-]`, the T/C reads like this: (dose: 12.5 mg/kg/injection, schedule: Q01DX009 (ip), vehicle: water) 93 % of control; (dose: 25.0 mg/kg/injection, schedule: Q01DX009 (ip), vehicle: water) 99 % of control; (dose: 50.0 mg/kg/injection, schedule: Q01DX009 (ip), vehicle: water) 90 % of control; (dose: 100.0 mg/kg/injection, schedule: Q01DX009 (ip), vehicle: water) 118 % of control; (dose: 200.0 mg/kg/injection, schedule: Q01DX009 (ip), vehicle: water) 107 % of control.
`CC(C)C1OC(/C=C/c2ccccc2)OCC1(C)C` (centres undefined): the T/C is 102 % of control (dose: 25.0 mg/kg/injection, schedule: Q04DX003 (ip), vehicle: saline with Tween-80); 102 % of control (dose: 50.0 mg/kg/injection, schedule: Q04DX003 (ip), vehicle: saline with Tween-80); 104 % of control (dose: 100.0 mg/kg/injection, schedule: Q04DX003 (ip), vehicle: saline with Tween-80); 98 % of control (dose: 200.0 mg/kg/injection, schedule: Q04DX003 (ip), vehicle: saline with Tween-80); 102 % of control (dose: 400.0 mg/kg/injection, schedule: Q04DX003 (ip), vehicle: saline with Tween-80).
For `O=NN(CC(=O)OCc1ccccc1)OCc1ccccc1`, the T/C under setting [7] is 101 % of control; the T/C under setting [8] was 104 % of control; the T/C under setting [9] was 102 % of control; the T/C under setting [10] is 108 % of control; the T/C (dose: 200.0 mg/kg/injection, schedule: Q01DX009 (ip), vehicle: other) was 100 % of control.
With `S=c1cc[nH]c2ccccc12`, the T/C is 104 % of control (dose: 6.25 mg/kg/injection, schedule: Q01DX009 (ip), vehicle: other); 104 % of control under setting [7]; 96 % of control under setting [8]; 112 % of control under setting [9]; 110 % of control under setting [10].

The record behind these values is PubChem BioAssay AID330 (DTP/NCI, 2004).
